Molecules are shown by their SMILES.

This test addresses T1, recombinant guanylate cyclase reporter cell line (Rattus norvegicus, UniProt P19686+P20595).
T1 construct: expressed in transfected cells
T1 sequence (P19686 1-690): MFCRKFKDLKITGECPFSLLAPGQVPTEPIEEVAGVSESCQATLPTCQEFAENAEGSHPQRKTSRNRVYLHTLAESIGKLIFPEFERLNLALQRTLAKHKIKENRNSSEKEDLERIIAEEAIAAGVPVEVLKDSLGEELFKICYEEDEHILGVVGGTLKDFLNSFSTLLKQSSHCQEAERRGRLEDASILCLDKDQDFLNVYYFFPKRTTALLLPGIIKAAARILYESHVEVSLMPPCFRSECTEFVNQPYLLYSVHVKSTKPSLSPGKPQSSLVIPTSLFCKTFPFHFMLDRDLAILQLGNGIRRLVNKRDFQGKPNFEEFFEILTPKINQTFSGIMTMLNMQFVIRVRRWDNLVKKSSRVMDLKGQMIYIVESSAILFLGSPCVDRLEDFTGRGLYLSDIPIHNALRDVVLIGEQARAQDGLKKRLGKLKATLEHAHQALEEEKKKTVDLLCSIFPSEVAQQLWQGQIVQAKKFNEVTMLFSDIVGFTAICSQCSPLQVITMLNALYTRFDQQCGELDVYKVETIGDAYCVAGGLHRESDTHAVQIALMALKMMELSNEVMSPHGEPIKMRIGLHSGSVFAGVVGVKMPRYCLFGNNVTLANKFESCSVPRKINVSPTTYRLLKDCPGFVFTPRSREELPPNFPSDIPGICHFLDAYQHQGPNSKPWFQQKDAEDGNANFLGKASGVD
T1 sequence (P20595 1-619): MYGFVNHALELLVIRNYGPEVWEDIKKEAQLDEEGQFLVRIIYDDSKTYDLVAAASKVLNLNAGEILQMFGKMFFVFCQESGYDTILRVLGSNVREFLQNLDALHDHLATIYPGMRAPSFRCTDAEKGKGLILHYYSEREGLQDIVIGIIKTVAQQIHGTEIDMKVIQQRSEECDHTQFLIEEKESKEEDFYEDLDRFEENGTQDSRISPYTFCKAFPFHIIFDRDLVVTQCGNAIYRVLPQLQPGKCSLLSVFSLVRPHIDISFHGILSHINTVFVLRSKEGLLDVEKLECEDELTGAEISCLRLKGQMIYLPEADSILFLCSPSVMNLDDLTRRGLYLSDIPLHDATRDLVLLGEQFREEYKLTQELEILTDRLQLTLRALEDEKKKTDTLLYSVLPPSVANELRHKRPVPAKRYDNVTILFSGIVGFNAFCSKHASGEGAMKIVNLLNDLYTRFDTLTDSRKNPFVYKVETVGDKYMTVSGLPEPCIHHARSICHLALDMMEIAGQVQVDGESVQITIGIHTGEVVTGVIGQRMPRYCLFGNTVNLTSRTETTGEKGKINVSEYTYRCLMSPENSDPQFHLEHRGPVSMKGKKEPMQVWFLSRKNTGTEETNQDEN
Briefly: Effect on a recombinant guanylate cyclase reporter cell line. In kind it is cell-based. The following applies: MEC=minimum effective concentration; in some cases as mean values for individual determinations. As for the experimental part: B-2. Effect on a Recombinant Guanylate Cyclase Reporter Cell Line
The cellular activity of the compounds of the invention is determined using a recombinant guanylate cyclase reporter cell line, as described in F. Wunder et al., Anal Biochem. 339, 104-112 (2005).
Representative MEC values (MEC=minimum effective concentration) for the compounds of the invention are shown in the table below (in some cases as mean values for individual determinations): […]
`Cc1cc(OCc2c(F)cccc2F)c2nc(C)c(C(=O)NCC(C)(N)CCC[Si](C)(C)C)n2c1` (single isomer, unassigned; enantiomer b) [Example 16, ent-N-[2-Amino-2-methyl-5-(trimethylsilyl)pentyl]-8-[(2,6-difluorobenzyl)oxy]-2,6-dimethylimidazo[1,2-a]pyridine-3-carboxamide (enantiomer B)]: the MEC came out at 1.0 µM.
As for `CCC(C)(N)CNC(=O)c1c(C)nc2c(OCc3c(F)cccc3F)cc(-c3cnco3)cn12` (racemic) [Example 7, rac-N-(2-Amino-2-methylbutyl)-8-[(2,6-difluorobenzyl)oxy]-2-methyl-6-(1,3-oxazol-5-yl)imidazo[1,2-a]pyridine-3-carboxamide], the figure is 1.0 µM.
As for `CCC(C)(N)CNC(=O)c1c(C)nc2c(OCc3c(F)cccc3F)cc(-c3cnn(C)c3)cn12` (racemic) [Example 6, rac-N-(2-Amino-2-methylbutyl)-8-[(2,6-difluorobenzyl)oxy]-2-methyl-6-(1-methyl-1H-pyrazol-4-yl)imidazo[1,2-a]pyridine-3-carboxamide], the figure is 10 µM; as for `CCCC[C@H](CO)NC(=O)c1c(OC)nc2c(OCc3c(F)cccc3F)cc(C)cn12` [Example 29, 8-[(2,6-Difluorobenzyl)oxy]-N-[(2R)-1-hydroxyhexan-2-yl]-2-methoxy-6-methylmidazo[1,2-a]pyridine-3-carboxamide], 0.55 µM; as for `CCCC(C)(N)CNC(=O)c1c(Cl)nc2c(OCc3c(F)cccc3F)cc(C)cn12` (single isomer, unassigned; enantiomer b) [Example 25, ent-N-(2-Amino-2-methylpentyl)-2-chloro-8-[(2,6-difluorobenzyl)oxy]-6-methylimidazo[1,2-a]pyridine-3-carboxamide (enantiomer B)], 0.3 µM.
As for `Cc1cc(OCc2c(F)cccc2F)c2nc(Cl)c(C(=O)NCC(C)(N)CCC(F)(F)F)n2c1` (single isomer, unassigned; enantiomer b) [Example 19, ent-N-(2-Amino-5,5,5-trifluoro-2-methylpentyl)-2-chloro-8-[(2,6-difluorobenzyl)oxy]-6-methylimidazo[1,2-a]pyridine-3-carboxamide (enantiomer B)], the figure is 0.07 µM.
For the compound `Cc1cc(OCc2c(F)cccc2F)c2nc(C)c(C(=O)NCC(C)(N)CC[Si](C)(C)C)n2c1` (single isomer, unassigned; enantiomer a) [Example 13, ent-N-[2-Amino-2-methyl-4-(trimethylsilyl)butyl]-8-[(2,6-difluorobenzyl)oxy]-2,6-dimethylimidazo[1,2-a]pyridine-3-carboxamide (enantiomer A)], the MEC was found to be 0.3 µM.
As for `Cc1cc(OCc2c(F)cccc2F)c2nc(Cl)c(C(=O)NC(CCC(F)(F)C(F)(F)F)C(C)(C)O)n2c1` (single isomer, unassigned; ent-2) [Example 28, ent-2-Chloro-8-[(2,6-difluorobenzyl)oxy]-6-methyl-N-(6,6,7,7,7-pentafluoro-2-hydroxy-2-methylheptan-3-yl)imidazo[1,2-a]pyridine-3-carboxamide (enantiomer A)], the figure is 0.03 µM; as for `Cc1cc(OCc2c(F)cccc2F)c2nc(C)c(C(=O)NCC(C)(N)CCC[Si](C)(C)C)n2c1` (single isomer, unassigned; enantiomer a) [Example 15, ent-N-[2-Amino-2-methyl-5-(trimethylsilyl)pentyl]-8-[(2,6-difluorobenzyl)oxy]-2,6-dimethylimidazo[1,2-a]pyridine-3-carboxamide (enantiomer A)], 0.3 µM; as for `CCC(C)(N)CNC(=O)c1c(COC)nc2c(OCc3c(F)cccc3F)cc(C)cn12.Cl` (racemic) [Example 8, rac-N-(2-Amino-2-methylbutyl)-8-[(2,6-difluorobenzyl)oxy]-2-(methoxymethyl)-6-methylimidazo[1,2-a]pyridine-3-carboxamide hydrochloride], 10 µM.
As for `CCC(C)(N)CNC(=O)c1c(Cl)nc2c(OCc3c(F)cccc3F)cc(C)cn12` (single isomer, unassigned; enantiomer a) [Example 21, ent-N-(2-Amino-2-methylbutyl)-2-chloro-8-[(2,6-difluorobenzyl)oxy]-6-methylimidazo[1,2-a]pyridine-3-carboxamide (enantiomer A)], the figure is 0.03 µM.
`CCCC(C)(N)CNC(=O)c1c(Cl)nc2c(OCc3c(F)cccc3F)cc(C)cn12` (single isomer, unassigned; enantiomer a) [Example 24, ent-N-(2-Amino-2-methylpentyl)-2-chloro-8-[(2,6-difluorobenzyl)oxy]-6-methylimidazo[1,2-a]pyridine-3-carboxamide (enantiomer A)]: the MEC was 0.1 µM.
As for `Cc1cc(OCc2c(F)cccc2F)c2nc(C3CC(F)(F)C3)c(C(=O)NCC(C)(N)CCC(F)(F)F)n2c1` (single isomer, unassigned; enantiomer b) [Example 17, ent-N-(2-Amino-5,5,5-trifluoro-2-methylpentyl)-8-[(2,6-difluorobenzyl)oxy]-2-(3,3-difluorocyclobutyl)-6-methylimidazo[1,2-a]pyridine-3-carboxamide (enantiomer B)], the figure is 3.0 µM; as for `Cc1cc(OCc2c(F)cccc2F)c2nc(C(C)C)c(C(=O)NCC(C)(N)CCC(F)(F)F)n2c1` (single isomer, unassigned; enantiomer b) [Example 18, ent-N-(2-Amino-5,5,5-trifluoro-2-methylpentyl)-8-[(2,6-difluorobenzyl)oxy]-2-isopropyl-6-methylimidazo[1,2-a]pyridine-3-carboxamide (enantiomer B)], 2.0 µM; as for `Cc1cc(OCc2c(F)cccc2F)c2nc(C)c(C(=O)NCC(C)(N)CC[Si](C)(C)C)n2c1` (single isomer, unassigned; enantiomer b) [Example 14, ent-N-[2-Amino-2-methyl-4-(trimethylsilyl)butyl]-8-[(2,6-difluorobenzyl)oxy]-2,6-dimethylimidazo[1,2-a]pyridine-3-carboxamide (enantiomer B)], 0.2 µM.
As for `CCCC(C)(N)CNC(=O)c1c(Cl)nc2c(OCc3c(F)cccc3F)cc(C)cn12` (racemic) [Example 23, rac-N-(2-Amino-2-methylpentyl)-2-chloro-8-[(2,6-difluorobenzyl)oxy]-6-methylmidazo[1,2-a]pyridine-3-carboxamide], the figure is 0.1 µM.
As for `Cc1nc2c(OCc3ncccc3F)cc(Cl)cn2c1C(=O)NCC(C)(N)CCC(F)(F)F` (single isomer, unassigned; enantiomer b) [Example 10, ent-N-(2-Amino-5,5,5-trifluoro-2-methylpentyl)-6-chloro-8-[(3-fluoropyridin-2-yl)methoxy]-2-methylimidazo[1,2-a]pyridine-3-carboxamide (enantiomer B)], the figure is 0.3 µM.
For the compound `CCC(C)(N)CNC(=O)c1c(C)nc2c(OCc3c(F)cccc3F)cc(OC(F)F)cn12` (racemic) [Example 5, rac-N-(2-Amino-2-methylbutyl)-8-[(2,6-difluorobenzyl)oxy]-6-(difluoromethoxy)-2-methylimidazo[1,2-a]pyridine-3-carboxamide], the MEC was 3.0 µM.
As for `CCC(C)(N)CNC(=O)c1c(Cl)nc2c(OCc3c(F)cccc3F)cc(C)cn12` (racemic) [Example 20], the figure is 0.07 µM; as for `CCC(C)(N)CNC(=O)c1c(Cl)nc2c(OCc3c(F)cccc3F)cc(C)cn12` (single isomer, unassigned; enantiomer b) [Example 22, ent-N-(2-Amino-2-methylbutyl)-2-chloro-8-[(2,6-difluorobenzyl)oxy]-6-methylimidazo[1,2-a]pyridine-3-carboxamide (enantiomer B)], 0.1 µM.

Source of the values: patent US20170050961A1, “IMIDAZO[1,2-A]PYRIDINES AS SOLUBLE GUANYLATE CYCLASE STIMULATORS FOR THE TREATMENT OF CARDIOVASCULAR DISEASES” (BAYER PHARMA AKTIENGESELLSCHAFT, priority 2014, published 2017).
